The source of these data is US4585877A, “Process for preparing 1,8-diethyl-1,3,4,9-tetrahydropyrano(3,4-b)-indole-1-acetic acid, etodolac” (American Home Products Corporation, priority 1985, dated 1986).

Where two headings read alike, the source gives them in different places.

One assay relates to adjuvant edema. Nature of the assay: Preventive Adjuvant Edema test (antiinflammatory activity). Particulars: po. It counts as in vivo.
For assay [1], the system named is Phenylquinone-induced writhing. Put plainly: Effects on Phenylquinone-Induced Writhing in Mice test (analgesic activity). Format: in vivo. Particulars: Mus musculus, po, read-out: antinociceptive ED50. (In general: Writhing tests count abdominal constrictions after an irritant is injected.)

In the case of `CC(=O)Oc1ccccc1C(=O)O` [aspirin], the ED50 (commonly the midpoint of the dose-response relation) was 184 mg/kg in the assay on adjuvant edema and 54 mg/kg in assay [1].
For the compound `CCc1cccc2c3c([nH]c12)C(CC)(CC(=O)O)OCC3` (stereo not shown) [etodolac, 1,8-Diethyl-1,3,4,9-tetrahydropyrano[3,4-b]indole-1-acetic Acid], the ED50 in the assay with adjuvant edema (Preventive Adjuvant-Edema, p.o., read-out: ED50) came to 4 mg/kg; in assay [1] (Phenylquinone-induced writhing in mice, p.o.) it was 154 mg/kg.
